Converted amounts (≈) assume the structure as drawn.
Key:
[1] = cited from earlier work
[2] = Solubility of dopa compounds in water; type: physicochemical; conditions: 50 mg of dopa

| Compound | solubility in water (in words) [1] | solubility in water [1] | volume of water necessary to dissolve the minimal dose of dopa [2] |
| --- | --- | --- | --- |
| C[C@](N)(Cc1ccc(O)c(O)c1)C(=O)O [methyldopa, L-3-(3,4-dihydroxyphenyl)-2-methylalanine] | poor solubility in water |  |  |
| NC(Cc1ccc(O)c(O)c1)C(=O)O (stereo not drawn) [dopa, β-(3,4-dihydroxyphenyl)-α-alanine] | poor solubility in water | 2500 µg/mL (≈ 12.7 mM) | 20 mL |
